Where two headings read alike, the source gives them in different places.
Tests used:
Dark adaptation = details: for Night driving ability: one week later
Description: A patient complains of difficulty driving at night, especially in going from a well-lit to a poorly-illuminated environment. […] One cc of Vitamin A and/or one of its visual pigment derivatives in a sustained release suspension is injected retrobulbarly on both sides. […] Six months later, the retrobulbar injections are repeated.
A patient complains of difficulty driving at night, especially in going from a well-lit to a poorly-illuminated environment. […] The patient has a cataract in the right eye and cataract surgery with an intraocular lens is performed. At the time of surgery, a small pellet of concentrated vitamin A and/or one of its visual pigment derivatives is placed in the eye for sustained release.

[1] = system: Dark adaptation abnormalities; details: Sorsby's fundus dystrophy patients, high dose oral, for as little as 1 week; cited from earlier work
[2] = chronic high dose oral (liver damage, osteoporosis, promotion of lung cancer in smokers); cited from earlier work
[3] = cited from earlier work

For `CC1=C(/C=C/C(C)=C/C=C/C(C)=C/CO)C(C)(C)CCC1` [Vitamin A, (2E,4E,6E,8E)-3,7-dimethyl-9-(2,6,-trimethylcyclohex-1-en-1-yl)nona-2,4,6,8-tetraen-1-ol], the Night driving ability (Dark adaptation; Example 1: patient, one cc sustained release suspension retrobulbarly on both sides) was “drives without difficulty at night”, the Night driving ability (Dark adaptation; Example 2: patient, small sustained release pellet placed in the eye at cataract surgery) was “drives without difficulty at night” and the “Duration of delivery in effective concentrations to the retina” value (Dark adaptation; human, in vivo) was 0.5-3 years. The Dark adaptation abnormalities [1] was “rapidly normalize” and the Systemic toxicity [2] was “associated systemic toxicity”.
In the case of `CC1=C(/C=C/C(C)=C/C=C/C(C)=C/C(=O)O)C(C)(C)CCC1` [all-trans-retinoic acid, retinoic acid], the “Photostability with BCD inclusion complex” value ([3]; beta cyclodextrin inclusion complex formation (Lin et al., 2000)) is listed as “increase the photostability”.
For `CC1=C(/C=C/C(C)=C/C=C/C(C)=C/C=O)C(C)(C)CCC1` [retinal], the “Shielding from oxygen by BCD inclusion complex” value ([3]; beta cyclodextrin inclusion complex (Lerner et al., 1989)) is given as “can shield retinal from oxygen”.
